For one assay, the system named is Zika virus. As to the kind of experiment: Functional CPE-based assay to measure dose dependent changes in antiviral-drug inhibitory efficacy against Zika virus MR766 in Vero E6 miRFP670 cells (cotreated with P-gp inhibitor, CP100356). Cells are treated with antiviral candidates that are serially diluted. EC50 is reported via analysis of MTS assay as a readout of CPE. The assay has been performed by KU Leuven. The following applies: Zika virus. The format is organism-based, Chlorocebus sabaeus, Vero C1008.

The next assay relates to dengue virus type 2. As to the kind of experiment: Functional assay to measure dose dependent changes in antiviral-drug inhibitory efficacy against Dengue virus type 2 New Guinea C in Vero E6 miRFP670 cells (cotreated with P-gp inhibitor, CP100356). Cells are treated with antiviral candidates that are serially diluted, following infection, cells are fixed. EC50 is reported via analysis of fluorescence intensity using high-content imager. The …. The format is organism-based, Chlorocebus sabaeus, Vero C1008. As to conditions: Dengue virus; for EC90: P-gp concentration 500 nM, P-gp inhibitor CP100356.

The EC50 is the concentration giving half of the maximal effect. In general, EC90 refers to the concentration needed for an effect of 90%.

For the compound `O=C(Nc1ccc2c(c1)CNC2)c1cc(F)cc(-c2cn[nH]c2)c1`, the EC50 is > 50 µM in the assay with Zika virus (Vero C1008) and 1.11 µM in the assay with dengue virus type 2 (Vero C1008). Besides, the EC90 in the assay on Zika virus (Vero C1008, Baseline response 0 %, Hill slope 1.1, Maximum measured 49.9 %, Maximum response 100 %, Minimum measured 5.357 %, P-gp concentration 500 nM, R squared 0.912, P-gp inhibitor CP100356) is > 50 µM; in the assay with dengue virus type 2 (Vero C1008, Baseline response 0 %, EC90 CI (lower) 0.042 uM, EC90 CI (upper) 0.221 uM, Hill slope -0.898, Maximum measured 65.167 %, Maximum response 100 %, Minimum measured 5.409 %, R squared 0.901), 12.8 µM.
Consider `O=C(Nc1cc2c(c(-c3c[nH]c(=O)c(F)c3)c1)CNC2)c1cc(F)cc2[nH]ncc12`, for which the EC50 with Zika virus (Vero C1008) was > 50 µM; in the assay on dengue virus type 2 (Vero C1008), > 25 µM. Further, the EC90 with Zika virus (Vero C1008, Baseline response 0 %, Hill slope 0.515, Maximum measured 9.878 %, Maximum response 100 %, Minimum measured 0.944 %, P-gp concentration 500 nM, R squared 0.362, P-gp inhibitor CP100356) was > 50 µM; in the assay with dengue virus type 2 (Vero C1008, Maximum measured 138.883 %, Minimum measured 79.511 %), > 25 µM.
Regarding `CO[C@H]1C[C@H](n2ncc3c(C(=O)Nc4ccc5c(c4)CNC5)cc(Cl)cc32)C1`, the EC50 in the assay on Zika virus (Vero C1008) was 3.1 µM; in the assay with dengue virus type 2 (Vero C1008), > 12.5 µM. Moreover, the EC90 was 3.53 µM with Zika virus (Vero C1008) and > 12.5 µM in the assay with dengue virus type 2 (Vero C1008, Baseline response 0 %, Hill slope 0.569, Maximum measured 146.378 %, Maximum response 100 %, Minimum measured 74.589 %, R squared 0.043).
Consider `CCCn1cc2c(C(=O)Nc3ccc4c(c3)CNC4)cc(Cl)cc2n1`, for which the 50% effective concentration (EC50) in the assay with Zika virus (Vero C1008) was 3.04 µM; with dengue virus type 2 (Vero C1008) it was > 3.12 µM. Moreover, the EC90 was 3.55 µM with Zika virus (Vero C1008) and > 3.12 µM with dengue virus type 2 (Vero C1008, Baseline response 0 %, Hill slope 1.203, Maximum measured 92.059 %, Maximum response 100 %, Minimum measured 55.102 %, R squared 0.785).
As for `O=C(Nc1ccc2c(c1)CNC2)c1cccc2c1[C@]1(CCNC1)C(=O)N2`, the concentration for a half-maximal effect (EC50) with Zika virus (Vero C1008) was > 50 µM; in the assay with dengue virus type 2 (Vero C1008), > 12.5 µM. Moreover, the 90% effect concentration (EC90) in the assay with Zika virus (Vero C1008, Baseline response 0 %, Hill slope 1.1, Maximum measured 3.95 %, Maximum response 100 %, Minimum measured -2.689 %, P-gp concentration 500 nM, R squared 0.205, P-gp inhibitor CP100356) was > 50 µM; in the assay on dengue virus type 2 (Vero C1008, Maximum measured 172.695 %, Minimum measured 97.519 %), > 12.5 µM.
As to `Cc1ncc(-c2cc(F)cc(C(=O)Nc3ccc4c(c3)CNC4)c2)s1`, the results for the concentration giving a half-maximal response (EC50) in the assay with Zika virus (Vero C1008) and with dengue virus type 2 (Vero C1008) were 3.77 µM and > 25 µM, respectively. The concentration for an effect of 90% (EC90) with Zika virus (Vero C1008, Baseline response 0 %, EC90 CI (lower) 3.392 uM, EC90 CI (upper) 11.052 uM, Hill slope 4.52, Maximum measured 126.226 %, Maximum response 100 %, Minimum measured 6.868 %, P-gp concentration 500 nM, R squared 0.912, P-gp inhibitor CP100356) was 6.12 µM; in the assay with dengue virus type 2 (Vero C1008, Maximum measured 125.186 %, Minimum measured 53.808 %) it was > 25 µM.
`O=C(NCC(F)F)[C@H](Nc1ccc2c(c1)CNC2)c1cc(F)cc2[nH]ncc12`: the 50% effective concentration (EC50) with Zika virus (Vero C1008) was 17.9 µM; in the assay with dengue virus type 2 (Vero C1008), > 50 µM. The 90% effect concentration (EC90) in the assay on Zika virus (Vero C1008, Baseline response 0 %, Hill slope 1.433, Maximum measured 86.437 %, Maximum response 100 %, Minimum measured 5.781 %, P-gp concentration 500 nM, R squared 0.963, P-gp inhibitor CP100356) is > 50 µM; with dengue virus type 2 (Vero C1008, Maximum measured 213.694 %, Minimum measured 101.734 %), > 50 µM.
As for `O=C(Nc1ccc2c(c1)CNC2)c1cc(F)cc(-c2c[nH]c(=O)c(F)c2)c1`, the concentration for a half-maximal effect (EC50) in the assay with Zika virus (Vero C1008) was > 50 µM; in the assay with dengue virus type 2 (Vero C1008) it was > 25 µM. Besides, the 90% effect concentration (EC90) with Zika virus (Vero C1008, Maximum measured 1.475 %, Minimum measured -1.93 %, P-gp concentration 500 nM, P-gp inhibitor CP100356) was > 50 µM; in the assay with dengue virus type 2 (Vero C1008, Baseline response 0 %, Hill slope 1.228, Maximum measured 158.309 %, Maximum response 100 %, Minimum measured 64.759 %, R squared 0.303) it was > 25 µM.
Consider `C=Cc1cc2c(cc1NC(=O)c1cc(F)cc3[nH]ncc13)CNC2`, for which the values for the EC50 with Zika virus (Vero C1008) and in the assay with dengue virus type 2 (Vero C1008) were 5.17 µM and > 6.25 µM, respectively. In addition, the concentration for an effect of 90% (EC90) in the assay with Zika virus (Vero C1008, Baseline response 0 %, EC90 CI (lower) 8.54 uM, EC90 CI (upper) 30.093 uM, Hill slope 1.942, Maximum measured 120.806 %, Maximum response 100 %, Minimum measured 10.445 %, P-gp concentration 500 nM, R squared 0.918, P-gp inhibitor CP100356) is 16 µM; with dengue virus type 2 (Vero C1008, Maximum measured 131.207 %, Minimum measured 113.262 %), > 6.25 µM.
`O=C(Nc1cc2c(cc1C1CC1)CNC2)c1cc(F)cc2[nH]ncc12`: the figures for the EC50 in the assay on Zika virus (Vero C1008) and in the assay on dengue virus type 2 (Vero C1008) were 7.12 µM and > 3.12 µM, respectively. Further, the EC90 in the assay on Zika virus (Vero C1008, Baseline response 0 %, EC90 CI (lower) 6.176 uM, EC90 CI (upper) 30.178 uM, Hill slope 3.376, Maximum measured 139.956 %, Maximum response 100 %, Minimum measured 0.398 %, P-gp concentration 500 nM, R squared 0.839, P-gp inhibitor CP100356) was 13.7 µM; with dengue virus type 2 (Vero C1008, Maximum measured 158.599 %, Minimum measured 73.357 %), > 3.12 µM.
`O=C(Nc1ccc2c(c1)CNC2)c1cc(Cl)cc2c1cnn2C[C@H]1CCCO1`: the concentration for a half-maximal effect (EC50) was 6.36 µM with Zika virus (Vero C1008) and > 50 µM in the assay with dengue virus type 2 (Vero C1008). Further, the EC90 with Zika virus (Vero C1008, Baseline response 0 %, Hill slope 36.566, Maximum measured 122.907 %, Maximum response 100 %, Minimum measured 2.24 %, P-gp concentration 500 nM, R squared 0.938, P-gp inhibitor CP100356) is 6.75 µM; with dengue virus type 2 (Vero C1008, Baseline response 0 %, Hill slope 0.931, Maximum measured 200.765 %, Maximum response 100 %, Minimum measured 63.333 %, R squared 0.208), > 50 µM.
For `Cc1cnccc1-c1cc(NC(=O)c2cc(F)cc3[nH]ncc23)cc2c1CNC2`, the EC50 with Zika virus (Vero C1008) is > 50 µM; in the assay on dengue virus type 2 (Vero C1008) it was > 25 µM. Further, the 90% effect concentration (EC90) with Zika virus (Vero C1008, Baseline response 0 %, Hill slope 2.277, Maximum measured 10.357 %, Maximum response 100 %, Minimum measured -2.491 %, P-gp concentration 500 nM, R squared 0.469, P-gp inhibitor CP100356) was > 50 µM; in the assay on dengue virus type 2 (Vero C1008, Maximum measured 259.167 %, Minimum measured 80.59 %), > 25 µM.
For `Cc1cc(-c2cc(F)cc(C(=O)Nc3ccc4c(c3)CNC4)c2)[nH]n1`, the figures for the EC50 in the assay with Zika virus (Vero C1008) and in the assay with dengue virus type 2 (Vero C1008) were 19.3 µM and > 50 µM, respectively. Also, the EC90 with Zika virus (Vero C1008, Baseline response 0 %, Hill slope 1.404, Maximum measured 64.496 %, Maximum response 100 %, Minimum measured 4.475 %, P-gp concentration 500 nM, R squared 0.907, P-gp inhibitor CP100356) was > 25 µM; with dengue virus type 2 (Vero C1008, Baseline response 0 %, Hill slope 1.641, Maximum measured 129.562 %, Maximum response 100 %, Minimum measured 66.397 %, R squared 0.205), > 50 µM.
With `COc1cc(-c2cc(NC(=O)c3cc(F)cc4[nH]ncc34)cc3c2CNC3)ccn1`, the concentration giving a half-maximal response (EC50) with Zika virus (Vero C1008) is 3.92 µM; in the assay on dengue virus type 2 (Vero C1008) it was > 50 µM. Besides, the EC90 in the assay on Zika virus (Vero C1008, Baseline response 0 %, EC90 CI (lower) 3.129 uM, EC90 CI (upper) 14.718 uM, Hill slope 4.011, Maximum measured 135.364 %, Maximum response 100 %, Minimum measured -0.295 %, P-gp concentration 500 nM, R squared 0.873, P-gp inhibitor CP100356) is 6.79 µM; with dengue virus type 2 (Vero C1008, Baseline response 0 %, Hill slope 0.386, Maximum measured 113.678 %, Maximum response 100 %, Minimum measured 63.234 %, R squared 0.283), > 50 µM.
Regarding `CC(C)n1cc2c(C(=O)Nc3ccc4c(c3)CNC4)cc(Cl)cc2n1`, the EC50 is 1.67 µM with Zika virus (Vero C1008) and > 12.5 µM with dengue virus type 2 (Vero C1008). The EC90 in the assay with Zika virus (Vero C1008) was 1.93 µM; in the assay on dengue virus type 2 (Vero C1008, Maximum measured 192.332 %, Minimum measured 77.026 %), > 12.5 µM.
Consider `O=C(Nc1cc2c(c(-c3ccnnc3)c1)CNC2)c1cc(Cl)cc2[nH]ncc12`, for which the EC50 in the assay with Zika virus (Vero C1008) was > 50 µM; in the assay with dengue virus type 2 (Vero C1008), > 6.25 µM. In addition, the concentration for an effect of 90% (EC90) in the assay with Zika virus (Vero C1008, Baseline response 0 %, Hill slope 0.648, Maximum measured 22.176 %, Maximum response 100 %, Minimum measured 1.861 %, P-gp concentration 500 nM, R squared 0.877, P-gp inhibitor CP100356) was > 50 µM; with dengue virus type 2 (Vero C1008, Baseline response 0 %, Hill slope 3.411, Maximum measured 174.98 %, Maximum response 100 %, Minimum measured 62.735 %, R squared 0.059) it was > 6.25 µM.
Regarding `O=C(Nc1ccc2c(c1)CNC2)c1cc(Cl)cc2c1cnn2C1CCC1`, the figures for the EC50 in the assay with Zika virus (Vero C1008) and in the assay with dengue virus type 2 (Vero C1008) were 1.26 µM and > 6.25 µM, respectively. Moreover, the EC90 in the assay on Zika virus (Vero C1008, Baseline response 0 %, EC90 CI (lower) 1.13 uM, EC90 CI (upper) 4.462 uM, Hill slope 3.792, Maximum measured 124.257 %, Maximum response 100 %, Minimum measured 13.491 %, P-gp concentration 500 nM, R squared 0.856, P-gp inhibitor CP100356) was 2.25 µM; in the assay on dengue virus type 2 (Vero C1008, Maximum measured 167.025 %, Minimum measured 94.774 %) it was > 6.25 µM.
Regarding `O=C(Nc1cc2c(c(C3=CCOCC3)c1)CNC2)c1cc(F)cc2[nH]ncc12`, the EC50 in the assay on Zika virus (Vero C1008) was 7.33 µM; in the assay on dengue virus type 2 (Vero C1008) it was > 25 µM. In addition, the EC90 in the assay with Zika virus (Vero C1008, Baseline response 0 %, EC90 CI (lower) 5.793 uM, EC90 CI (upper) 20.937 uM, Hill slope 5.397, Maximum measured 131.01 %, Maximum response 100 %, Minimum measured -1.308 %, P-gp concentration 500 nM, R squared 0.937, P-gp inhibitor CP100356) is 11 µM; with dengue virus type 2 (Vero C1008, Maximum measured 218.898 %, Minimum measured 80.524 %), > 25 µM.

These data come from ChEMBL document CHEMBL5661943, “ASAP - In vitro antiviral effect” (2024).
